Results reported in US20090311782A1, “METHOD FOR PROMOTING DIFFERENTIATION OF STEM CELL INTO INSULIN PRODUCING CELL” (TAIPEI VETERANS GENERAL HOSPITAL, priority 2008, published 2009).

How the values were obtained:
Type in all cases: cell-based
[1] = tested on: human MSCs; assay: Insulin and Glut2 gene expression in stage IV cells by real-time RT-PCR, normalized by GAPDH (FIGS. 4A, 4B); conditions: pellet suspension culture; for gene expressions of insulin and Glut2: 5 μg/mL ECM, compared with pellet culture without any ECM
Protocol: In order to further compare the different differentiation effects resulting from different ECMs when stem cells differentiate into IPCs in pellet suspension culture, the present invention performs the tests by adding fibronectin and laminin in combination or separately.
The gene expressions of insulin and Glut2 in stage IV cells of the present embodiments I-IV are analyzed by real-time RT-PCR respectively, and the detected results are further normalized by the expression level of glyceraldehyde-3-phosphate dehydrogenase (GAPDH) to measure the mRNA expression levels.

[2] = tested on: human MSCs; assay: Relative mRNA expression of insulin and Glut2 by RT-PCR and agarose electrophoresis, normalized by β-actin (FIG. 1); conditions: end of four-stage culture
Excerpt: Islet cells are aggregated cells, and the extracellular matrix (ECM) thereof includes fibronectin and laminin. The present invention provides a method for promoting MSCs to differentiate into IPCs by cell pellet suspension culture with additional fibronectin or laminin. The cells of the embodiments and the control groups at the end of the four-stage culture are harvested, and the relative mRNA expression levels of insulin and glucose transporter 2 (Glut2) thereof are detected by reverse-transcription polymerase chain reaction (RT-PCR) and agarose electrophoresis, and are normalized by the expression level of β-actin. In addition, it should be noted that all of the bar graphs shown in FIGS. 1-4 are represented by the measured mean with its standard deviation.

[3] = tested on: human MSCs; assay: Dithizone (DTZ) staining for islet differentiation; conditions: pellet suspension culture with versus without fibronectin, DTZ staining (not shown)
Excerpt: Islet differentiation is further evaluated by dithizone (DTZ) staining to detect zinc ion, which binds six insulin molecules within the cells. Cells in the control groups I and II are not stained by DTZ; cells in the embodiment II are slightly stained by DTZ, and cells in the embodiment I are greatly stained by DTZ (not shown).

[4] = tested on: IPCs derived from human MSCs; assay: Insulin release by IPCs quantified by human insulin ELISA; conditions: IBMX 100 μM, low glucose concentration (5 mM), 1 hour incubation in KRB buffer, FIG. 3B, p<0.05
Protocol: Insulin is an endocrine for reducing blood sugar, and normal islet cells are induced by glucose to release insulin. In order to quantify insulin release by IPCs, a human insulin ELISA (Enzyme-Link ImmunoSorbent Assay) is employed herein.
The suspension stage IV cells are rinsed twice in Phosphate Buffered Saline (PBS) and Krebs-Ringer bicarbonate (KRB) buffer (120 mM NaCl, 5 m M KCl, 2.5 m M CaCl2, 1.1 mM MgCl2, 25 mM NaHCO3 , 0.1 BSA) and preincubated for 1 hour with KRB buffer containing 5 mM glucose. The suspension stage IV cells are then incubated for 1 hour in fresh KRB buffer with 5 mM, 10 mM, 15 mM or 25 mM glucose, and the released insulin in the incubation medium is quantified by ELISA. The quantified insulin release results are shown in FIG. 3A, wherein undifferentiated MSCs are served as a control (*p<0.05 as compared with 5 mM; #p<0.05 as compared with 10 mM; student's t test). […] The insulin secreted by IPCs derived from human MSCs in the present invention is up to 1.1 ng/h/2.5×10^5 IPCs, which is even higher than those secreted by IPCs derived from rodent bone marrow stem cells in the prior art (referring to the citations 5-7). […]

[5] = monolayer culture with 5 μg/mL fibronectin (control group I)
[6] = pellet suspension culture with 5 μg/mL fibronectin (embodiment I)

Molecule | gene expression level compared with fibronectin plus laminin [1] | gene expressions of insulin and Glut2 [1] | insulin and Glut2 expressions compared with fibronectin only ([1]; compared with embodiment I (fibronectin only)) | Glut2 expression [2, 5] | gene expression of insulin [2, 5] | Glut2 expression [2, 6] | gene expression of insulin [2, 6] | differentiation of MSCs into IPCs [3] | insulin release [4]
laminin | significantly higher than that of the embodiment IV | increased gene expressions of insulin and Glut2 | higher than the embodiment I | – | – | – | – | – | –
fibronectin | – | increased gene expressions of insulin and Glut2 | – | moderately detected | not detected | markedly detected | obviously detected | can further enhance the differentiation of MSCs into IPCs | –
CC(C)Cn1c(=O)n(C)c(=O)c2[nH]cnc21 [IBMX, 3-isobutyl-1-methylxanthine] | – | – | – | – | – | – | – | – | stimulates insulin release
